Patent US20080187575A1 (priority 2004, published 2008)

System: pathogenic form of the prion protein PrP^Sc in prion infected cells (3F4-ScN2a)
Assay type: cell-based, mouse
Settings: for amount of PrP^Sc in prion infected cells: concentration range between 5 and 20 μM (final concentration), three days; for activity of prion propagation (FIG. 5): within concentration range 5 to 20 μM

Cc1ccc(N)cc1Nc1nccc(-c2cccnc2)n1 [Compound 4, 4-Methyl-N-3-(4-pyridin-3-yl-pyrimidin-2-yl)-benzene-1,3-diamine]
amount of PrP^Sc in prion infected cells: significantly reduced
activity of prion propagation (FIG. 5): inhibit almost completely

Cc1ccc(NC(=O)c2ccc(CCl)cc2)cc1Nc1nccc(-c2cccnc2)n1 [Compound 5, 4-Chloromethyl-N-[4-methyl-3-(4-pyridin-3-yl-pyrimidin-2-ylamino)-phenyl]-benzamide]
amount of PrP^Sc in prion infected cells: significantly reduced
activity of prion propagation (FIG. 5): inhibit almost completely

O=S(=O)(Nc1cccc(Nc2nccc(-c3ccncc3)n2)c1)c1ccc(Cl)cc1 [Compound 37, 4-Chloro-N-[3-(4-pyridin-4-yl-pyrimidin-2-ylamino)-phenyl]-benzenesulfonamide]
amount of PrP^Sc in prion infected cells: significantly reduced
activity of prion propagation (FIG. 5): inhibit almost completely
